Source: the METLIN SMRT retention time set (Domingo-Almenara et al. 2019)

Assay: gradient 5% acetonitrile 3 min, to 50% in 2 min, to 85% in 15 min, held 3 min, 100 µL/min
Conditions: column: Zorbax Extend-C18 2.1 x 50 mm; eluents: water / acetonitrile, 0.1% formic acid
Summary of the method: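 Each retention time is based on an adduct peak selected computationally and verified by manual inspection. Measurements used HPLC–quadrupole time-of-flight mass spectrometry in positive and negative ionization mode on mixtures of ~100 pure standards. Chromatography ran on a Zorbax Extend-C18 column (2.1 × 50 mm, 1.8 μm) at 100 μL/min with water and acetonitrile, each containing 0.1% formic acid, and dead and dwell volumes of 40 μL and 900 μL.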

| Compound | RP-LC retention time |
| --- | --- |
| COc1cccc(C(=O)N2CCC(c3cc(N)on3)CC2)c1 | 653 s |
| CC(C)CN(Cc1cccnc1)C1CN(S(=O)(=O)c2cn(C)cn2)C1 | 591 s |
| CCCNC(=O)CC1Sc2ncccc2N(CC)C1=O (configuration not stated) | 642 s |
| CC(C)NC(=O)c1cc2nc(N(C)C)n(-c3ccc(F)cc3)c2s1 | 627 s |
| CC(NC(=O)C(=O)NC1CCCCC1)C(c1cccs1)N1CCOCC1 (configuration not stated) | 604 s |
| CCOC(=O)C1CCN(C(=O)C2CCN(S(=O)(=O)c3ccc4c(c3)CCCC(=O)N4)CC2)CC1 | 713 s |
| Cc1ccc2c(c1)C(O)(CC(=O)c1cccc(N)c1)C(=O)N2 (configuration not stated) | 606 s |
| COc1ccc(NS(=O)(=O)c2cc(-c3nc(C)c(C(=O)N4CCCC4)s3)n(C)c2)cc1OC | 727 s |
| CNC(=O)c1cc[nH]c1C1CCCN(C(=O)c2cscn2)C1 (configuration not stated) | 591 s |
| Cc1ccc2nc(NC(=O)CSc3nn4c(=O)c(C)nnc4s3)sc2c1 | 704 s |
| Cn1cc(S(=O)(=O)N2CCCCC2)cc1C(=O)N1CCc2ccccc2C1 | 938 s |
| O=C(NCC1(CO)CC1)c1cccc(C(F)(F)F)c1 | 691 s |
| O=C(NC1CCCC1)c1cc(N2CCCC2)n2nccc2n1 | 908 s |
| Cc1cc(NS(=O)(=O)c2ccc3c(c2)CCCC(=O)N3)ccc1Br | 774 s |
| CCc1sc(NC(=O)c2cc(OC)cc(OC)c2)nc1-c1ccccc1 | 1200 s |
| CCCN1C(=O)c2cc(C(=O)NCc3ccc(F)cc3)nn2CC1(C)C(=O)NC1CCCC1 (configuration not stated) | 824 s |
| COc1cc([C@@H]2c3cc4c(cc3[C@H](O)[C@@H](CO)[C@@H]2C(=O)NCCC2=CCCCC2)OCO4)cc(OC)c1OC | 781 s |
| CCOC(=O)c1cc(C)nc2c1c(=O)n(Cc1ccc(OC)cc1)c(=O)n2C | 1020 s |
| CCN1C(=O)Cc2cc(C(=O)NC3CCCCCC3)ccc21 | 797 s |
| COC(=O)c1c(NCCO)c2cc(F)ccc2[nH]c1=O | 590 s |
| COC[C@@H]1CN(c2ncccn2)C[C@H]1C(=O)N(C)Cc1ccco1 | 619 s |
| COC(=O)c1cc(OCC(=O)Nc2cccc(OC)c2)c2cc(OC)ccc2n1 | 811 s |

Further lines, results first:

| RP-LC retention time | Compound |
| --- | --- |
| 1100 s | O=C(NCc1cccc(C(F)(F)F)c1)C1CCCN(c2nccnc2Sc2ccccc2)C1 (configuration not stated) |
| 712 s | COc1ccc(NC(=O)C2CCN(c3cnc4nccnc4c3)CC2)cc1Cl |
| 630 s | CC(C)(c1cc(Cl)c(O)c(CN2CCOCC2)c1)c1cc(Cl)c(O)c(CN2CCOCC2)c1 |
| 1110 s | Cc1c(Cl)cccc1NC(=O)C(=O)NCC1(c2ccc(F)cc2)CC1 |
| 852 s | Cc1csc(-c2ccc(N3CCN(C(=O)c4cc5ccccc5[nH]4)CC3)nc2)n1 |
| 712 s | CCCCN(C)C(=O)Cn1c(C2CC(=O)N(c3ccc(OC)cc3)C2)nc2ccccc21 (configuration not stated) |
| 927 s | O=C(COc1ccc(Cl)cc1Cl)NCC(=O)N1CCOC(c2ccccc2)C1 (configuration not stated) |
| 842 s | Clc1ccc(Nc2c(-c3ccc(N4CCOCC4)cc3)nc3cnccn23)cc1 |
| 594 s | Cc1ccc2cc(CCC(=O)NCCN3CCOCC3)c(=O)[nH]c2c1 |
| 621 s | Cc1noc(C)c1CN1CCC(NC(=O)c2cc3ccccc3[nH]2)CC1 |
| 1040 s | CCc1ccc(NC(=O)N2CCCC(C)(C(=O)NCc3ccc(C)cc3)C2)cc1 (configuration not stated) |
| 761 s | Cc1cccc(Sc2nccnc2N2CCCC(C(=O)N3CCN(c4ccccn4)CC3)C2)c1 (configuration not stated) |
| 1040 s | Cc1ccccc1-c1noc(Cc2nnc(-c3ccc(F)cc3)o2)n1 |
| 1060 s | Cc1noc(C2(NC(=O)c3ccc4ccccc4n3)CCCCC2)n1 |
| 1240 s | CCCCOc1ccc(-c2nc(C3CC(=O)N(c4ccc(F)cc4)C3)no2)cc1 (configuration not stated) |
